From ChEMBL document CHEMBL1649421, “New drug-like hydroxyphenylnaphthol steroidomimetics as potent and selective 17β-hydroxysteroid dehydrogenase type 1 inhibitors for the treatment of estrogen-dependent diseases” (J Med Chem, 2011)

How the values were obtained:
[1] = biological target: T1, 17-beta-hydroxysteroid dehydrogenase type 1 (Homo sapiens) (UniProt P14061); assay: Inhibition of [3H]E1 binding to human recombinant 17beta-HSD1 expressed in baculovirus-infected Sf9 cells at 100 nM after 10 mins by fluid scintillation counting
T1 sequence (whole entry): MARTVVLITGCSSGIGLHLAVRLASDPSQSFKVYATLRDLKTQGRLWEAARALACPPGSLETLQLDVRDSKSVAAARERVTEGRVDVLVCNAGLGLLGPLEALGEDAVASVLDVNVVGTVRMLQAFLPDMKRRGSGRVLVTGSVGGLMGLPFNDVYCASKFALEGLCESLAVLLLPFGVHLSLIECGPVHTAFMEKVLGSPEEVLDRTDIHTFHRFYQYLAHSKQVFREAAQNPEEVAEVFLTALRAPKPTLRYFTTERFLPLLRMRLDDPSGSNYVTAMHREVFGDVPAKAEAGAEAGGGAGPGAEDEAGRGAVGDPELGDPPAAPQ

[2] = biological target: T1, 17-beta-hydroxysteroid dehydrogenase type 1 (Homo sapiens); assay: Inhibition of [3H]E1 binding to human recombinant 17beta-HSD1 expressed in baculovirus-infected Sf9 cells at 1 uM after 10 mins by fluid scintillation counting
[3] = biological target: T2, 17-beta-hydroxysteroid dehydrogenase type 2 (Homo sapiens) (UniProt P37059); assay: Inhibition of [3H]E2 binding to human recombinant 17beta-HSD2 expressed in baculovirus-infected Sf9 cells at 100 nM after 10 mins by fluid scintillation counting
T2 sequence (whole entry): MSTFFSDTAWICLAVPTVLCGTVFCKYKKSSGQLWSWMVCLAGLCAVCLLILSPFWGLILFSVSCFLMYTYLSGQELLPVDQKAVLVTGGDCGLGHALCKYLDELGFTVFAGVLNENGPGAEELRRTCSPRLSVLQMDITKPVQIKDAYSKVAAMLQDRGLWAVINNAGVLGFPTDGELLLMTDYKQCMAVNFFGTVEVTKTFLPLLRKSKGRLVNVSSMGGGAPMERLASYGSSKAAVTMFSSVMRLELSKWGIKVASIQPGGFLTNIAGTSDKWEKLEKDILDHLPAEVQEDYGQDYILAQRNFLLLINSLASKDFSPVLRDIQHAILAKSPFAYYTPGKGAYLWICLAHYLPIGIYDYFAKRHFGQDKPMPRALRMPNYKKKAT

[4] = biological target: T2, 17-beta-hydroxysteroid dehydrogenase type 2 (Homo sapiens); assay: Inhibition of [3H]E2 binding to human recombinant 17beta-HSD2 expressed in baculovirus-infected Sf9 cells at 1 uM after 10 mins by fluid scintillation counting
Homo sapiens = species on record: Homo sapiens; assay: Selectivity ratio of IC50 for human placental 17beta-HSD2 to IC50 for human placental 17beta-HSD1
[5] = biological target: T3, 17-beta-hydroxysteroid dehydrogenase type 1 (Homo sapiens, UniProt P14061); assay: Displacement of [3H]E1 from 17beta-HSD1 in human T47D cells after 10 mins by fluid scintillation counting; assay type: cell-based
T3 sequence (P14061 whole entry): T1 sequence (whole entry)

[6] = biological target: T4, Estrogen receptor (Homo sapiens) (UniProt P03372); assay: Displacement of [3H]E2 from human recombinant ERalpha by liquid scintillation counting relative to estradiol
T4 sequence (whole entry): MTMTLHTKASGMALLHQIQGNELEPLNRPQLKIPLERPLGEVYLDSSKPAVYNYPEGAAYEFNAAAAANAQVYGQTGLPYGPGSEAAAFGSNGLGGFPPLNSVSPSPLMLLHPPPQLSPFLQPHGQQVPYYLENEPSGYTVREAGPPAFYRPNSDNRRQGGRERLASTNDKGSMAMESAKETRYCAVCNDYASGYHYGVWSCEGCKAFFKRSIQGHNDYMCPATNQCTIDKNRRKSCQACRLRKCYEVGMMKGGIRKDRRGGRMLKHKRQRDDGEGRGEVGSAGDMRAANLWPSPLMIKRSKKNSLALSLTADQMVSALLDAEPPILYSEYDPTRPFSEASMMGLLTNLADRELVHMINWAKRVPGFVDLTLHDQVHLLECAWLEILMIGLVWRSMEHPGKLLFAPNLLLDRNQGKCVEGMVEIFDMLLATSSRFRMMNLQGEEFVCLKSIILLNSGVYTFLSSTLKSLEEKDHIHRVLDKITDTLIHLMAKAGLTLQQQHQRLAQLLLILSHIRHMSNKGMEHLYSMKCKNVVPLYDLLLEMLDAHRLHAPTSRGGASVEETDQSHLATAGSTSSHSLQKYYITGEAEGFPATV

[7] = biological target: Estrogen receptor beta (Homo sapiens) (UniProt Q92731); assay: Displacement of [3H]E2 from human recombinant ERbeta by liquid scintillation counting relative to estradiol
Estrogen receptor beta (Homo sapiens), sequence (Q92731 whole entry): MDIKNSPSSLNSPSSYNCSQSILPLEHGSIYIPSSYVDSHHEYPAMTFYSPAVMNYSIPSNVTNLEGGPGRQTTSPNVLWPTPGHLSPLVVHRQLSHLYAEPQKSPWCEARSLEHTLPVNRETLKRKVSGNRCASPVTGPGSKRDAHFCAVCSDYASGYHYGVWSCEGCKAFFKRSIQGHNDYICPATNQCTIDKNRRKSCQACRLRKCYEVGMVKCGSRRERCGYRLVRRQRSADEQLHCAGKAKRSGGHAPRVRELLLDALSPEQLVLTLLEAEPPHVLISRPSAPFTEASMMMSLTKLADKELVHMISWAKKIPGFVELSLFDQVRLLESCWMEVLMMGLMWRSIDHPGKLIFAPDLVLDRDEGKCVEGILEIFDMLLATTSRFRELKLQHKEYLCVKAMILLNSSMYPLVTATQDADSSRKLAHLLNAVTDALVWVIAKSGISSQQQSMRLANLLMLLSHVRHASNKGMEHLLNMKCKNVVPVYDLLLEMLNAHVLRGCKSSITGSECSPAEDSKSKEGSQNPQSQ

[8] = biological target: T1, 17-beta-hydroxysteroid dehydrogenase type 1 (Homo sapiens); assay: Inhibition of [3H]E1 binding to human placental 17beta-HSD1 at 1 uM after 10 mins by fluid scintillation counting
[9] = biological target: T2, 17-beta-hydroxysteroid dehydrogenase type 2 (Homo sapiens); assay: Inhibition of [3H]E2 binding to human placental 17beta-HSD2 at 1 uM after 10 mins by fluid scintillation counting
[10] = biological target: T5, 17-beta-hydroxysteroid dehydrogenase type 2 (Homo sapiens, UniProt P37059); assay: Displacement of [3H]E2 from human placental 17beta-HSD2 after 10 mins by fluid scintillation counting
T5 sequence (P37059 whole entry): T2 sequence (whole entry)

[11] = Half life in Sprague-Dawley rat liver microsomes by LC-MS/MS analysis; assay type: ADME, Microsome
[12] = Apparent permeability across human Caco2 cells after 180 mins by LC-MS/MS analysis; assay type: ADME, cell-based; conditions: Caco-2
[13] = biological target: T3, 17-beta-hydroxysteroid dehydrogenase type 1; assay: Displacement of [3H]E1 from human placental 17beta-HSD1 after 10 mins by fluid scintillation counting
Cytochrome P450 1A2 = biological target: T6, Cytochrome P450 1A2 (Homo sapiens, UniProt P05177); assay: Inhibition of human CYP1A2; assay type: ADME
T6 sequence (P05177 whole entry): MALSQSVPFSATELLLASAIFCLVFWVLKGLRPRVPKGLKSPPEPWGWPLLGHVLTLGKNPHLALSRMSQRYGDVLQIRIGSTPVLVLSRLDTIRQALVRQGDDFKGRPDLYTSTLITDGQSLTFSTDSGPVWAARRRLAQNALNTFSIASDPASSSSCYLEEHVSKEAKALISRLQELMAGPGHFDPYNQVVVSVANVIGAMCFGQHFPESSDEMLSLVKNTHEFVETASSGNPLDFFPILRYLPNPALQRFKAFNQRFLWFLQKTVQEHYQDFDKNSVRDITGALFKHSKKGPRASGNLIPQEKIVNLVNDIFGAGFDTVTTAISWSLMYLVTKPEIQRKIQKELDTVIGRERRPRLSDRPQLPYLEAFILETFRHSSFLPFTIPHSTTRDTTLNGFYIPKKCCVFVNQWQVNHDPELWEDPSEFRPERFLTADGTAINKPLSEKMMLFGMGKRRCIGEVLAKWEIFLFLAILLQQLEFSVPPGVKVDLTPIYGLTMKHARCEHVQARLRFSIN

Cytochrome P450 2B6 = biological target: T7, Cytochrome P450 2B6 (Homo sapiens, UniProt P20813); assay: Inhibition of human CYP2B6; assay type: ADME
T7 sequence (P20813 whole entry): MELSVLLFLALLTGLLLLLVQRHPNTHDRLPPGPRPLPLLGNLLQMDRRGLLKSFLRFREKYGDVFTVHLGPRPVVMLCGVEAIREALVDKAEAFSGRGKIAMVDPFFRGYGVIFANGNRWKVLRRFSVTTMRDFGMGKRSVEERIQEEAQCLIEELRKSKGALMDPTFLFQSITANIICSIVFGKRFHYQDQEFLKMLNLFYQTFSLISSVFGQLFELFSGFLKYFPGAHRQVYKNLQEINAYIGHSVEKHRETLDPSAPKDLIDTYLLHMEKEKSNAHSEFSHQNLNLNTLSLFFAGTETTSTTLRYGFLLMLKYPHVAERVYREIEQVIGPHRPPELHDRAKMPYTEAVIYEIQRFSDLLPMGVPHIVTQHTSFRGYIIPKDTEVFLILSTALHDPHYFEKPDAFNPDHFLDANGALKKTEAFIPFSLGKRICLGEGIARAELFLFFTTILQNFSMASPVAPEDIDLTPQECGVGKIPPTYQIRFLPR

Cytochrome P450 2C9 = Cytochrome P450 2C9 (Homo sapiens, UniProt P11712); assay: Inhibition of human CYP2C9; assay type: ADME
Cytochrome P450 2C9, sequence (P11712 whole entry): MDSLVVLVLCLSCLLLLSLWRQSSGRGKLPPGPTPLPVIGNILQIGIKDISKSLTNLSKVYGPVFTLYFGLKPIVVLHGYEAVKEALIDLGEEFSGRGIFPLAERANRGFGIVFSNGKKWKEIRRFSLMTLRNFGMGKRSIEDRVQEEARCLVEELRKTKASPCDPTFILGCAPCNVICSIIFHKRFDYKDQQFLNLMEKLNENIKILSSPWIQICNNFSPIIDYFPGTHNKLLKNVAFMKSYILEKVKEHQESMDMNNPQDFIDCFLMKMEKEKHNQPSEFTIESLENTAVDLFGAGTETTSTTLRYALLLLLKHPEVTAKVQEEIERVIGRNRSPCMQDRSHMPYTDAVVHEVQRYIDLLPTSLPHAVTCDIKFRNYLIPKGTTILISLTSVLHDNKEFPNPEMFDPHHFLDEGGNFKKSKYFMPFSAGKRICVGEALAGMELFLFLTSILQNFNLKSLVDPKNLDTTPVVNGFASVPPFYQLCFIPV

Cytochrome P450 2C19 = Cytochrome P450 2C19 (Homo sapiens, UniProt P33261); assay: Inhibition of human CYP2C19; assay type: ADME
Cytochrome P450 2C19, sequence (P33261 whole entry): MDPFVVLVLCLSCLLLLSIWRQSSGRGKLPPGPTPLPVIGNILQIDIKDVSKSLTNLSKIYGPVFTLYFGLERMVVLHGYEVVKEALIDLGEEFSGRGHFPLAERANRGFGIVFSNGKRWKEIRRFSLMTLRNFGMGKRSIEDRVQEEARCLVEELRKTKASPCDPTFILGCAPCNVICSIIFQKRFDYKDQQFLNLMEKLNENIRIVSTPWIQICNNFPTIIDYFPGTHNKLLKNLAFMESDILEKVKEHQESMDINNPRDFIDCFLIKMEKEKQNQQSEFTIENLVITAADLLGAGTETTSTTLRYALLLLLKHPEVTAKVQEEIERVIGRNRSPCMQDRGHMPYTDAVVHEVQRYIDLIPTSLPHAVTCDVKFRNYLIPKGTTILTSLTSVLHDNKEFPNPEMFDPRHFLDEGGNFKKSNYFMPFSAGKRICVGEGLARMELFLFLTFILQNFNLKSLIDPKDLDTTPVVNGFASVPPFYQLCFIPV

Cytochrome P450 2D6 = Cytochrome P450 2D6 (Homo sapiens, UniProt P10635); assay: Inhibition of human CYP2D6; assay type: ADME
Cytochrome P450 2D6, sequence (P10635 whole entry): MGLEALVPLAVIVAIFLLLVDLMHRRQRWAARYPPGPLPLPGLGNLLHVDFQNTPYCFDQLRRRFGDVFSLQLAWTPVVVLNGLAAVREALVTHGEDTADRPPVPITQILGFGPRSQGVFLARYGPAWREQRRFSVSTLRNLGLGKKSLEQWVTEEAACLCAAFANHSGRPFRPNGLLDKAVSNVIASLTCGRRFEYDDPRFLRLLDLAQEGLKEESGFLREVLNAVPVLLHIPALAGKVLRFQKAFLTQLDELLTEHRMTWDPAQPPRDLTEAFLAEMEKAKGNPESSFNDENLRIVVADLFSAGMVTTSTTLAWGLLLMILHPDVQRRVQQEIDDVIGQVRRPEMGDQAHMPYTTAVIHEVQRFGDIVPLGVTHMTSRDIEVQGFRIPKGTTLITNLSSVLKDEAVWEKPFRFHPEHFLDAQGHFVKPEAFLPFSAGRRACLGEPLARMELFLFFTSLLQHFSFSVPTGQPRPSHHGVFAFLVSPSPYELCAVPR

Cytochrome P450 3A4 = Cytochrome P450 3A4 (Homo sapiens, UniProt P08684); assay: Inhibition of human CYP3A4; assay type: ADME
Cytochrome P450 3A4, sequence (P08684 whole entry): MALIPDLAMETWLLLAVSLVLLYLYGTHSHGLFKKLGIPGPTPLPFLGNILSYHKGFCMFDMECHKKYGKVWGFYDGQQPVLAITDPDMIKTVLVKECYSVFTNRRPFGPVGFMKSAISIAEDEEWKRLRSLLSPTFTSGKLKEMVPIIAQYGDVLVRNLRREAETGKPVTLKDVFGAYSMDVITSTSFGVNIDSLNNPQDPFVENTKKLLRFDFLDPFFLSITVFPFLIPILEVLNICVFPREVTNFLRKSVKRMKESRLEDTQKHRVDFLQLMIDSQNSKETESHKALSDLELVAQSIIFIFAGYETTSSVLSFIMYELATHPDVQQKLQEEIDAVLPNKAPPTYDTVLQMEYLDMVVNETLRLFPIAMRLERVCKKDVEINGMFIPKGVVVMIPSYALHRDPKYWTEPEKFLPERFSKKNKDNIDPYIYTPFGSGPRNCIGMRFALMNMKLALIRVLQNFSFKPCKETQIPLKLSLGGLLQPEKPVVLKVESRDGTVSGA

[14] = biological target: T1, 17-beta-hydroxysteroid dehydrogenase type 1 (Homo sapiens); assay: Inhibition of [3H]E1 binding to human placental 17beta-HSD1 at 100 nM after 10 mins by fluid scintillation counting

| SMILES | inhibition [1] | inhibition [2] | inhibition [3] | inhibition [4] | Ratio IC50 (Homo sapiens) | RBA [6] | RBA [7] | inhibition [8] | inhibition [9] | also measured |
| --- | --- | --- | --- | --- | --- | --- | --- | --- | --- | --- |
| Oc1cccc(-c2ccc3c(-c4ccc(N5CCOCC5)cc4)c(O)ccc3c2)c1 | 32% | 65% | 12% | 32% |  |  |  |  |  |  |
| Oc1cccc(-c2ccc3cc(O)ccc3c2)c1 |  |  |  |  | 49 | 0.1% | 0.1% |  |  | IC50 [5]: 0.229 µM |
| Oc1ccccc1-c1ccc2c(-c3cncnc3)c(O)ccc2c1 |  |  |  |  |  |  |  | < 10% | < 10% |  |
| COc1ccc(-c2c(O)ccc3cc(-c4cccc(O)c4)ccc23)cn1 | 86% | 89% | 24% | 67% |  | 0.01% | < 0.01% |  |  | IC50 [10]: 0.53 µM; half-life [11]: 4.82 h; Papp at 3 h [12]: 8 ×10⁻⁶ cm/s |
| Oc1cccc(-c2ccc3c(-c4cncnc4)cccc3c2)c1 |  |  |  |  |  |  |  | < 10% | < 10% |  |
| Oc1cccc(-c2ccc3c(-c4ccoc4)c(O)ccc3c2)c1 | 83% | 89% | 61% | 92% | 8 | 0.01% | 0.01% |  |  | IC50 [13]: 0.07 µM |
| Oc1cccc(-c2ccc3c(-c4cncnc4)c(O)ccc3c2)c1 |  |  |  |  |  |  |  | 41% | 85% | inhibition [14]: < 10% |

More lines, main results first:

| inhibition [1] | inhibition [2] | inhibition [3] | inhibition [4] | Ratio IC50 (Homo sapiens) | RBA [6] | RBA [7] | inhibition [8] | inhibition [9] | SMILES | also measured |
| --- | --- | --- | --- | --- | --- | --- | --- | --- | --- | --- |
| 74% | 86% | 12% | 49% |  | 0.01% | < 0.01% |  |  | Oc1cccc(-c2ccc3c(-c4ccncc4)c(O)ccc3c2)c1 | IC50 [13]: 0.064 µM |
|  |  | 22% | 77% | 27 | 0.01% | 0.01% |  |  | Oc1cccc(-c2ccc3c(-c4ccccc4)c(O)ccc3c2)c1 | IC50 [5]: 0.281 µM; Papp at 3 h [12]: 9.3 ×10⁻⁶ cm/s; IC50 (Cytochrome P450 1A2): 7.16 µM; IC50 (Cytochrome P450 2B6): 7.96 µM; IC50 (Cytochrome P450 2C9): 1.64 µM; IC50 (Cytochrome P450 2C19): 1.41 µM; IC50 (Cytochrome P450 2D6): 15.5 µM; IC50 (Cytochrome P450 3A4): 2.77 µM |
| 35% | 82% | 24% | 64% |  |  |  |  |  | CC(=O)Nc1cccc(-c2c(O)ccc3cc(-c4cccc(O)c4)ccc23)c1 |  |
